Results taken from ChEMBL document CHEMBL1201862, “PubChem BioAssay data set” (2004).
Active and inactive are the calls of the source.

How the values were obtained:
[1] = C. albicans growth with fluconazole, confirmation, fluorescence, retest (AID 2467); type: functional, cell-based
[2] = target: Alkaline phosphatase, placental type (Homo sapiens, UniProt P05187); test: PLAP enzyme inhibitors, confirmation, biochemical, luminescence (AID 1512); type: functional
[3] = target: T1, Rac GTPase-activating protein 1 (Homo sapiens, UniProt Q9H0H5); test: MgcRacGAP GTPase-activating activity inhibitors, confirmation, biochemical, ADP Hunter fluorescence, primary and confirmatory (AID 624330); type: functional
T1 sequence (Q9H0H5 whole entry): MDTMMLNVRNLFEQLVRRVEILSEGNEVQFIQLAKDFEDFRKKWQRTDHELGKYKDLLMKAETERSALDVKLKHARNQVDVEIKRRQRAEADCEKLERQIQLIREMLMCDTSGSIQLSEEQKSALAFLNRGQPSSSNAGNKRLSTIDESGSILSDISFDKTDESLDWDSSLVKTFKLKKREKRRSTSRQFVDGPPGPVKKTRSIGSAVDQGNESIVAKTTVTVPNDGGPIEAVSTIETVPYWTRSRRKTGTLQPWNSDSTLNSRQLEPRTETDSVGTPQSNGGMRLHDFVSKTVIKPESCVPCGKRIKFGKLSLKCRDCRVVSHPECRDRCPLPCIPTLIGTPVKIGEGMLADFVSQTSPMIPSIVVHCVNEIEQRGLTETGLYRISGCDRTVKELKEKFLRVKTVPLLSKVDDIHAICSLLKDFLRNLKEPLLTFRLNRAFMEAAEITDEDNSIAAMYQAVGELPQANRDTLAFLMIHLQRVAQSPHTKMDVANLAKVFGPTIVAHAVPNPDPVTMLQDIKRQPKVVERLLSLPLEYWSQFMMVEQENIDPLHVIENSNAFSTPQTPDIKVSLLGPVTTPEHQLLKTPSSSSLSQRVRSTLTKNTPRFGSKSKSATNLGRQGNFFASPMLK

Bcl-2-like protein 10 = target: T2, Bcl-2-like protein 10 (Homo sapiens, UniProt Q9HD36); test: displacers of TR3 peptide from Bcl-B, primary screen, selectivity assay for Bfl-1 inhibitor project, biochemical, fluorescence polarization, FITC-TR3 peptide (AID 748);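 also: fluorescence polarization from a fluorescein-labelled TR3 peptide binding purified Bcl-B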
T2 sequence (Q9HD36 whole entry): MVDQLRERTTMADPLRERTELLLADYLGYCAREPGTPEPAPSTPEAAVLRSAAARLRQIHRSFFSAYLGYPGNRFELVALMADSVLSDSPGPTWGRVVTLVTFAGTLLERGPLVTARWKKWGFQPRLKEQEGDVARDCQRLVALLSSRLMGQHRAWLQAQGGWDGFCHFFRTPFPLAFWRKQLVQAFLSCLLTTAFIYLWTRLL

[4] = target: T3, Alkaline phosphatase, tissue-nonspecific isozyme (Homo sapiens, UniProt P05186); test: human TNAP enzyme inhibitors, SAR follow-up, biochemical, luminescent, dose response (AID 1056)
T3 sequence (P05186 whole entry): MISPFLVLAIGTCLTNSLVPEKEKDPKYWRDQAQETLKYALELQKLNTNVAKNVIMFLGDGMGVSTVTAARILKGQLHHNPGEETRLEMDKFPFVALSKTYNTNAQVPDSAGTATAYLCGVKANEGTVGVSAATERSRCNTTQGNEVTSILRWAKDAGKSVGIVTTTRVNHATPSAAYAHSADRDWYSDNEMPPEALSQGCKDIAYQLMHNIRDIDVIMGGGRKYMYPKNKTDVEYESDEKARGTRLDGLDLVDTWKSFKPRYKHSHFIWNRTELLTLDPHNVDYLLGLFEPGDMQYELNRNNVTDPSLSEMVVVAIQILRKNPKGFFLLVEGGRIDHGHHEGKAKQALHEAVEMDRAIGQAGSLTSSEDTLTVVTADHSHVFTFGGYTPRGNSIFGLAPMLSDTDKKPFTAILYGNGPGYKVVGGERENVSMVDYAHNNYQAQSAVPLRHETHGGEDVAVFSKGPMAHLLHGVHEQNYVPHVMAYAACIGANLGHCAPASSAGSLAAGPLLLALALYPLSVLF

[5] = target: Intestinal-type alkaline phosphatase (Homo sapiens, UniProt P09923); test: activation of human intestinal alkaline phosphatase – biochemical, dose response (AID 488873); type: functional
Aminopeptidase N = target: T4, Aminopeptidase N (Plasmodium falciparum FcB1/Columbia, UniProt O96935); test: P. falciparum M1AAP inhibitors, biochemical, fluorogenic H-Leu-NHMec substrate, 1536-well (AID 1445); set-up: species or system Plasmodium falciparum 3D7, 3D7
T4 sequence (O96935 whole entry): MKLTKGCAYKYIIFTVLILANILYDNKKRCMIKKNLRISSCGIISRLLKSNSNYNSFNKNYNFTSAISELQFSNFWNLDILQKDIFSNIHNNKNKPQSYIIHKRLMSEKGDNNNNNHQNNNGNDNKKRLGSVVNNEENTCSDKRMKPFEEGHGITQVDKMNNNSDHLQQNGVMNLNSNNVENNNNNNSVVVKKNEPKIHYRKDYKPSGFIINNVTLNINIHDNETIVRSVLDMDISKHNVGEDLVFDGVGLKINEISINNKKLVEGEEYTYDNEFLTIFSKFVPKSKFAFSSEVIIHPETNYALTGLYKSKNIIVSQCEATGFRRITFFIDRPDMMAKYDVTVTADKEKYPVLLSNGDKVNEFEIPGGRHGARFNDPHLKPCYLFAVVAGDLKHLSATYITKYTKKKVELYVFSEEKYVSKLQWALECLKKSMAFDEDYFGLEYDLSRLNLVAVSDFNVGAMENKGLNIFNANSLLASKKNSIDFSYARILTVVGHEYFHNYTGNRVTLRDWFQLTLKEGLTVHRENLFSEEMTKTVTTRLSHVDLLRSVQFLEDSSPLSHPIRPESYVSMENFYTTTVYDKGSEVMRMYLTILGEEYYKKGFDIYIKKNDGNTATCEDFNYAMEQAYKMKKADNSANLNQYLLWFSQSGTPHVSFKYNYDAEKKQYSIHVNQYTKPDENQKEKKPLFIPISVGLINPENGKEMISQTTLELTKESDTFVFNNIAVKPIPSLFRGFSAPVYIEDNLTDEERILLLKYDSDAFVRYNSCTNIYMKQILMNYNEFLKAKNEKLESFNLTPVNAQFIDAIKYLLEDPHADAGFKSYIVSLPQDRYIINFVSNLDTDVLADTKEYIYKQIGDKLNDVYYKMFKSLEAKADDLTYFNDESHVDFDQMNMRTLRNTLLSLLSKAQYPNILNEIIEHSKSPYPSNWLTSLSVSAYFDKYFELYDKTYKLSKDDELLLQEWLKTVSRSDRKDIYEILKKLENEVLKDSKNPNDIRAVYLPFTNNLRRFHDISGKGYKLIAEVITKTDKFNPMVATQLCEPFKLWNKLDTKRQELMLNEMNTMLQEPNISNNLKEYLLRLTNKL

[6] = target: T3, Alkaline phosphatase, tissue-nonspecific isozyme; test: TNAP enzyme activators, dose response, selectivity assay for mouse IAP activator project, biochemical, TNAP isozyme, mouse IAP uHTS hits (AID 488880); type: functional
[7] = NIH-3T3 fibroblast cytotoxicity, dose response, cytotoxicity control, cell-based, fluorescence, Alamar Blue, secondary assay (AID 2327); type: functional;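 also: NIH-3T3 mouse fibroblasts cultured with fluconazole at 8 µg/mL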
[8] = target: Intestinal-type alkaline phosphatase (Mus musculus, UniProt P24822); test: mouse intestinal alkaline phosphatase activators, dose response, biochemical, luminescence, uHTS hits (AID 488783); type: functional
[9] = target: T5, Ubiquitin-conjugating enzyme E2 N (Homo sapiens, UniProt P61088); type: functional
T5 sequence (P61088 whole entry): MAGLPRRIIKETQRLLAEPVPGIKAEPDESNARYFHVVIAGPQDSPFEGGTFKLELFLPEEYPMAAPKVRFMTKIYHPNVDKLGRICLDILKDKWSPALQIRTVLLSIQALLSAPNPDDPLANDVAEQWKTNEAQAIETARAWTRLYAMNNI

[10] = target: T5, Ubiquitin-conjugating enzyme E2 N; type: functional; remark: listed apart in the source
Bcl-2-related protein A1 = target: T6, Bcl-2-related protein A1 (Mus musculus, UniProt Q07440); type: functional;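 also: confirmatory dose–response counterscreen on Bfl-1, used to check hits from a UBC13 polyubiquitin inhibitor campaign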
T6 sequence (Q07440 whole entry): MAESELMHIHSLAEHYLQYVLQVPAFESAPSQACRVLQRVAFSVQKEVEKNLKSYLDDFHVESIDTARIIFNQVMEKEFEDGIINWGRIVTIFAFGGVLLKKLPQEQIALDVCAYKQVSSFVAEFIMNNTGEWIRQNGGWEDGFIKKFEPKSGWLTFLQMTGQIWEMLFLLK

Chain of Alkaline phosphatase, placental type (P05187 whole entry): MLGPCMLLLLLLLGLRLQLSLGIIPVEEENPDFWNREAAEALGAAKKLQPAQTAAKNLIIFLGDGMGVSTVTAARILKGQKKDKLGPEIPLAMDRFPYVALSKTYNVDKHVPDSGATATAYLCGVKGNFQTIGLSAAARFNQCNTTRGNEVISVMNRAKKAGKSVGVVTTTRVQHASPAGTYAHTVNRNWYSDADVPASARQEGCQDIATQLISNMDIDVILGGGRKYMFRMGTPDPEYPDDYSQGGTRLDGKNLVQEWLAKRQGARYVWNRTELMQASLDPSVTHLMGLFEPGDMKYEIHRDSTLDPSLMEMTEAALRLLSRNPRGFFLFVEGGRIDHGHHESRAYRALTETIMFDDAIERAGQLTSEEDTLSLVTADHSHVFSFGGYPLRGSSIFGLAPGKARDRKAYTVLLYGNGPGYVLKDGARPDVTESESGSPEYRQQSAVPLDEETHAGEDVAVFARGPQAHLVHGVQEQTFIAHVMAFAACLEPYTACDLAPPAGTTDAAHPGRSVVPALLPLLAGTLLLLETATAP
Chain of Intestinal-type alkaline phosphatase (Mus musculus, UniProt P24822) (P24822 whole entry): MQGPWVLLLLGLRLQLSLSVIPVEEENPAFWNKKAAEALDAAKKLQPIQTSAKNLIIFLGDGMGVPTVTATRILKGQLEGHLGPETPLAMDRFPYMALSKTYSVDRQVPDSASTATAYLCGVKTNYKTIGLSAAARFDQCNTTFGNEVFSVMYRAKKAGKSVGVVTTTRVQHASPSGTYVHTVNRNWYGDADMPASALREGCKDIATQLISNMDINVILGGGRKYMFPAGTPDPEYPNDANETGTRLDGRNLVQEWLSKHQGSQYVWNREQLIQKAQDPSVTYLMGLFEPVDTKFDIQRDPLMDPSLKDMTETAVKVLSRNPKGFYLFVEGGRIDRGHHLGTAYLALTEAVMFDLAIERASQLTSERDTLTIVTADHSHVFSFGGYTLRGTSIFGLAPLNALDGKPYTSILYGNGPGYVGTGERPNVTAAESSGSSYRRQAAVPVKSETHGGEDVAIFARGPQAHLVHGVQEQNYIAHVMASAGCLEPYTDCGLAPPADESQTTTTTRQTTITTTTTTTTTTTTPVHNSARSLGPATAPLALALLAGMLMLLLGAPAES
Chain of Intestinal-type alkaline phosphatase (Homo sapiens, UniProt P09923) (P09923 whole entry): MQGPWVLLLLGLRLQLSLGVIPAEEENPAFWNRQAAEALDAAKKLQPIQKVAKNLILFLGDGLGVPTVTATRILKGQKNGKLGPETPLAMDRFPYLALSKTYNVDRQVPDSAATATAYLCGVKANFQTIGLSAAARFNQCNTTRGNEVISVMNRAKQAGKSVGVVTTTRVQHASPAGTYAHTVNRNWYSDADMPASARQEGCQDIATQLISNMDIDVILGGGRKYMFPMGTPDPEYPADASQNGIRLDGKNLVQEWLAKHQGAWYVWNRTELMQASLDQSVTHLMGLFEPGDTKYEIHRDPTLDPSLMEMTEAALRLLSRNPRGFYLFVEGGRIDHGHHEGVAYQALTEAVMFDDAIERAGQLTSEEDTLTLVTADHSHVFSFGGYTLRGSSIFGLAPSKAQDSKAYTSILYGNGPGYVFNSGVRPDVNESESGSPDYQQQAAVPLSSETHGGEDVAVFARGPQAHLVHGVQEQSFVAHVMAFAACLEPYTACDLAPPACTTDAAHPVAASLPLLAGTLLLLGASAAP

SMILES | EC50 [1] | IC50 [2] | IC50 [3] | IC50 (Bcl-2-like protein 10) | IC50 [4] | EC50 [5] | IC50 (Aminopeptidase N) | EC50 [6] | EC50 [7] | EC50 [8] | IC50 [9] | IC50 [10] | IC50 (Bcl-2-related protein A1)
CCn1c(CSc2nc3ccccc3s2)nnc1SCC(=O)c1ccc(O)c(O)c1 | > 38 µM (not active) | 3.87 µM (inactive) | 179 µM (active) | > 100 µM (inactive) | > 100 µM (inactive) | > 100 µM (inactive) | 68.8 µM (active) | 64.2 µM (active) | > 160 µM (inactive) | 1.84 µM (active) |  |  | 
CCCCN(CC)CCNC(=O)c1cc2c(=O)n(CC)c3ccccc3c2s1 |  |  |  |  |  |  |  |  |  |  | 5.26 µM (active) | 18.1 µM (active) | > 20 µM (inactive)
